Assay results reported in patent US20110136666A1, “CHEMICAL COMPOUNDS” (SYNGENTA CROP PROTECTION, INC., priority 2008, published 2011).

Each compound was assayed on Alopecurus myosuroides (ALOMY) (assay: Pre-emergence biological efficacy, glasshouse pot test). Conditions: 312 h, 1000 g/ha, after 13 days, 100=total damage, 0=no damage, read-out: Percentage damage caused to weed species ALOMY.
Type: in vivo
Protocol: (§1) Seeds of Alopecurus myosuroides (ALOMY), Setaria faberi (SETFA), Echinochloa crus-galli (ECHCG), Solanum nigrum (SOLNI), Amaranthus retroflexus (AMARE) and Ipomea hederaceae (IPOHE) were sown in standard soil in pots. After cultivation for one day under controlled conditions in a glasshouse (at 24/16° C., day/night; 14 hours light; 65% humidity), the plants were sprayed with an aqueous spray solution derived from the formulation of the technical active ingredient in acetone/water (50:50) solution containing 0.5% Tween 20 (polyoxyethylene sorbitan monolaurate, CAS RN 9005-64-5) to give a final dose of 250 or 1000 g/ha of test compound.
(§2) The test plants were then grown under controlled conditions in the glasshouse (at 24/16° C., day/night; 14 hours light; 65% humidity) and watered twice daily. After 13 days the test was evaluated (100=total damage to plant; 0=no damage to plant).
`COC(=O)c1nc(-c2ccc(F)nc2)nc(N)c1Cl` [Compound 2-157, 4-Amino-5-chloro-2-(2-fluoropyridin-5-yl)-6-methoxycarbonyl pyrimidine] showed a pest or weed control at 1000 g/ha of 0%. In the case of `COC(=O)c1nc(-c2ccc(OC)nc2OC)nc(N)c1Cl` [Compound 2-159, 4-Amino-5-chloro-2-(2,6-dimethoxypyridin-3-yl)-6-methoxycarbonyl pyrimidine], the pest or weed control at 1000 g/ha is reported as 0%. `COC(=O)c1nc(-c2ccc(C)nc2F)nc(N)c1Cl` [Compound 2-161, 4-Amino-5-chloro-2-(2-fluoro-6-methylpyridin-3-yl)-6-methoxycarbonyl pyrimidine] gave a pest or weed control at 1000 g/ha of 0%.

These compounds were tested on Amaranthus retroflexus (AMARE) in the same assay as above. Conditions: 312 h, 1000 g/ha, after 13 days, 100=total damage, 0=no damage, read-out: Percentage damage caused to weed species AMARE.
Type: in vivo
Protocol: as §1, §2
`COC(=O)c1nc(-c2ccc(F)nc2)nc(N)c1Cl` [Compound 2-157, 4-Amino-5-chloro-2-(2-fluoropyridin-5-yl)-6-methoxycarbonyl pyrimidine] showed a pest or weed control at 1000 g/ha of 0%. `COC(=O)c1nc(-c2ccc(OC)nc2OC)nc(N)c1Cl` [Compound 2-159, 4-Amino-5-chloro-2-(2,6-dimethoxypyridin-3-yl)-6-methoxycarbonyl pyrimidine] showed a pest or weed control at 1000 g/ha of 0%. `COC(=O)c1nc(-c2ccc(C)nc2F)nc(N)c1Cl` [Compound 2-161, 4-Amino-5-chloro-2-(2-fluoro-6-methylpyridin-3-yl)-6-methoxycarbonyl pyrimidine] was tested, and the pest or weed control at 1000 g/ha was 60%.

The compounds below were run on Echinochloa crus-galli (ECHCG) in the same assay as above. Conditions: 312 h, 1000 g/ha, after 13 days, 100=total damage, 0=no damage, read-out: Percentage damage caused to weed species ECHCG.
Type: in vivo
Protocol: as §1, §2
Work on `COC(=O)c1nc(-c2ccc(F)nc2)nc(N)c1Cl` [Compound 2-157, 4-Amino-5-chloro-2-(2-fluoropyridin-5-yl)-6-methoxycarbonyl pyrimidine] yielded a pest or weed control at 1000 g/ha of 0%. `COC(=O)c1nc(-c2ccc(OC)nc2OC)nc(N)c1Cl` [Compound 2-159, 4-Amino-5-chloro-2-(2,6-dimethoxypyridin-3-yl)-6-methoxycarbonyl pyrimidine] showed a pest or weed control at 1000 g/ha of 0%. Compound `COC(=O)c1nc(-c2ccc(C)nc2F)nc(N)c1Cl` [Compound 2-161, 4-Amino-5-chloro-2-(2-fluoro-6-methylpyridin-3-yl)-6-methoxycarbonyl pyrimidine] has a pest or weed control at 1000 g/ha of 0%.

These compounds were tested on Ipomea hederaceae (IPOHE) in the same assay as above. Conditions: Ipomoea hederacea, 312 h, 1000 g/ha, after 13 days, 100=total damage, 0=no damage, read-out: Percentage damage caused to weed species IPOHE.
Type: in vivo
Protocol: as §1, §2
`COC(=O)c1nc(-c2ccc(F)nc2)nc(N)c1Cl` [Compound 2-157, 4-Amino-5-chloro-2-(2-fluoropyridin-5-yl)-6-methoxycarbonyl pyrimidine] showed a pest or weed control at 1000 g/ha of 0%. `COC(=O)c1nc(-c2ccc(OC)nc2OC)nc(N)c1Cl` [Compound 2-159, 4-Amino-5-chloro-2-(2,6-dimethoxypyridin-3-yl)-6-methoxycarbonyl pyrimidine] showed a pest or weed control at 1000 g/ha of 0%. Work on `COC(=O)c1nc(-c2ccc(C)nc2F)nc(N)c1Cl` [Compound 2-161, 4-Amino-5-chloro-2-(2-fluoro-6-methylpyridin-3-yl)-6-methoxycarbonyl pyrimidine] yielded a pest or weed control at 1000 g/ha of 0%.

Each compound was assayed on Setaria faberi (SETFA) in the same assay as above. Conditions: 312 h, 1000 g/ha, after 13 days, 100=total damage, 0=no damage, read-out: Percentage damage caused to weed species SETFA.
Type: in vivo
Protocol: as §1, §2
`COC(=O)c1nc(-c2ccc(F)nc2)nc(N)c1Cl` [Compound 2-157, 4-Amino-5-chloro-2-(2-fluoropyridin-5-yl)-6-methoxycarbonyl pyrimidine] gave a pest or weed control at 1000 g/ha of 0%. For `COC(=O)c1nc(-c2ccc(OC)nc2OC)nc(N)c1Cl` [Compound 2-159, 4-Amino-5-chloro-2-(2,6-dimethoxypyridin-3-yl)-6-methoxycarbonyl pyrimidine], the pest or weed control at 1000 g/ha was 0%. `COC(=O)c1nc(-c2ccc(C)nc2F)nc(N)c1Cl` [Compound 2-161, 4-Amino-5-chloro-2-(2-fluoro-6-methylpyridin-3-yl)-6-methoxycarbonyl pyrimidine] was tested, and the pest or weed control at 1000 g/ha was 0%.

Each compound was assayed on Solanum nigrum (SOLNI) in the same assay as above. Conditions: 312 h, 1000 g/ha, after 13 days, 100=total damage, 0=no damage, read-out: Percentage damage caused to weed species SOLNI.
Type: in vivo
Protocol: as §1, §2
In the case of `COC(=O)c1nc(-c2ccc(F)nc2)nc(N)c1Cl` [Compound 2-157, 4-Amino-5-chloro-2-(2-fluoropyridin-5-yl)-6-methoxycarbonyl pyrimidine], the pest or weed control at 1000 g/ha is reported as 0%. For `COC(=O)c1nc(-c2ccc(OC)nc2OC)nc(N)c1Cl` [Compound 2-159, 4-Amino-5-chloro-2-(2,6-dimethoxypyridin-3-yl)-6-methoxycarbonyl pyrimidine], the pest or weed control at 1000 g/ha was 0%. For `COC(=O)c1nc(-c2ccc(C)nc2F)nc(N)c1Cl` [Compound 2-161, 4-Amino-5-chloro-2-(2-fluoro-6-methylpyridin-3-yl)-6-methoxycarbonyl pyrimidine], the pest or weed control at 1000 g/ha was 40%.

The compounds below were run on Alopecurus myosuroides (ALOMY) (assay: Post-emergence biological efficacy, glasshouse pot test). Conditions: 312 h, 1000 g/ha, after 13 days, 100=total damage, 0=no damage, read-out: Percentage damage caused to weed species ALOMY.
Type: in vivo
Protocol: as §1, with “8 days” for “one day”
(§3) The test plants were then grown on under controlled conditions in a glasshouse (at 24/16° C., day/night; 14 hours light; 65% humidity) and watered twice daily. After 13 days the test was evaluated (100=total damage to plant; 0=no damage to plant).
`COC(=O)c1nc(-c2ccc(F)nc2)nc(N)c1Cl` [Compound 2-157, 4-Amino-5-chloro-2-(2-fluoropyridin-5-yl)-6-methoxycarbonyl pyrimidine] gave a pest or weed control at 1000 g/ha of 30%. In the case of `COC(=O)c1nc(-c2ccc(OC)nc2OC)nc(N)c1Cl` [Compound 2-159, 4-Amino-5-chloro-2-(2,6-dimethoxypyridin-3-yl)-6-methoxycarbonyl pyrimidine], the pest or weed control at 1000 g/ha is reported as 0%. `COC(=O)c1nc(-c2ccc(C)nc2F)nc(N)c1Cl` [Compound 2-161, 4-Amino-5-chloro-2-(2-fluoro-6-methylpyridin-3-yl)-6-methoxycarbonyl pyrimidine] was tested, and the pest or weed control at 1000 g/ha was 30%.

Each compound was assayed on Amaranthus retroflexus (AMARE) in the same assay as above. Conditions: 312 h, 1000 g/ha, after 13 days, 100=total damage, 0=no damage, read-out: Percentage damage caused to weed species AMARE.
Type: in vivo
Protocol: as §1, with “8 days” for “one day”
as §3
Work on `COC(=O)c1nc(-c2ccc(F)nc2)nc(N)c1Cl` [Compound 2-157, 4-Amino-5-chloro-2-(2-fluoropyridin-5-yl)-6-methoxycarbonyl pyrimidine] yielded a pest or weed control at 1000 g/ha of 60%. `COC(=O)c1nc(-c2ccc(OC)nc2OC)nc(N)c1Cl` [Compound 2-159, 4-Amino-5-chloro-2-(2,6-dimethoxypyridin-3-yl)-6-methoxycarbonyl pyrimidine] was tested, and the pest or weed control at 1000 g/ha was 100%. `COC(=O)c1nc(-c2ccc(C)nc2F)nc(N)c1Cl` [Compound 2-161, 4-Amino-5-chloro-2-(2-fluoro-6-methylpyridin-3-yl)-6-methoxycarbonyl pyrimidine] showed a pest or weed control at 1000 g/ha of 90%.

Each compound was assayed on Echinochloa crus-galli (ECHCG) in the same assay as above. Conditions: 312 h, 1000 g/ha, after 13 days, 100=total damage, 0=no damage, read-out: Percentage damage caused to weed species ECHCG.
Type: in vivo
Protocol: as §1, with “8 days” for “one day”
as §3
Work on `COC(=O)c1nc(-c2ccc(F)nc2)nc(N)c1Cl` [Compound 2-157, 4-Amino-5-chloro-2-(2-fluoropyridin-5-yl)-6-methoxycarbonyl pyrimidine] yielded a pest or weed control at 1000 g/ha of 0%. For `COC(=O)c1nc(-c2ccc(OC)nc2OC)nc(N)c1Cl` [Compound 2-159, 4-Amino-5-chloro-2-(2,6-dimethoxypyridin-3-yl)-6-methoxycarbonyl pyrimidine], the pest or weed control at 1000 g/ha was 10%. `COC(=O)c1nc(-c2ccc(C)nc2F)nc(N)c1Cl` [Compound 2-161, 4-Amino-5-chloro-2-(2-fluoro-6-methylpyridin-3-yl)-6-methoxycarbonyl pyrimidine] gave a pest or weed control at 1000 g/ha of 60%.

These compounds were tested on Ipomea hederaceae (IPOHE) in the same assay as above. Conditions: Ipomoea hederacea, 312 h, 1000 g/ha, after 13 days, 100=total damage, 0=no damage, read-out: Percentage damage caused to weed species IPONE.
Type: in vivo
Protocol: as §1, with “8 days” for “one day”
as §3
`COC(=O)c1nc(-c2ccc(F)nc2)nc(N)c1Cl` [Compound 2-157, 4-Amino-5-chloro-2-(2-fluoropyridin-5-yl)-6-methoxycarbonyl pyrimidine] gave a pest or weed control at 1000 g/ha of 70%. For `COC(=O)c1nc(-c2ccc(OC)nc2OC)nc(N)c1Cl` [Compound 2-159, 4-Amino-5-chloro-2-(2,6-dimethoxypyridin-3-yl)-6-methoxycarbonyl pyrimidine], the pest or weed control at 1000 g/ha was 10%. In the case of `COC(=O)c1nc(-c2ccc(C)nc2F)nc(N)c1Cl` [Compound 2-161, 4-Amino-5-chloro-2-(2-fluoro-6-methylpyridin-3-yl)-6-methoxycarbonyl pyrimidine], the pest or weed control at 1000 g/ha is reported as 100%.

The compounds below were run on Setaria faberi (SETFA) in the same assay as above. Conditions: 312 h, 1000 g/ha, after 13 days, 100=total damage, 0=no damage, read-out: Percentage damage caused to weed species SETFA.
Type: in vivo
Protocol: as §1, with “8 days” for “one day”
as §3
`COC(=O)c1nc(-c2ccc(F)nc2)nc(N)c1Cl` [Compound 2-157, 4-Amino-5-chloro-2-(2-fluoropyridin-5-yl)-6-methoxycarbonyl pyrimidine] showed a pest or weed control at 1000 g/ha of 20%. Compound `COC(=O)c1nc(-c2ccc(OC)nc2OC)nc(N)c1Cl` [Compound 2-159, 4-Amino-5-chloro-2-(2,6-dimethoxypyridin-3-yl)-6-methoxycarbonyl pyrimidine] has a pest or weed control at 1000 g/ha of 30%. `COC(=O)c1nc(-c2ccc(C)nc2F)nc(N)c1Cl` [Compound 2-161, 4-Amino-5-chloro-2-(2-fluoro-6-methylpyridin-3-yl)-6-methoxycarbonyl pyrimidine] gave a pest or weed control at 1000 g/ha of 80%.

What follows are compounds tested on Solanum nigrum (SOLNI) in the same assay as above. Conditions: 312 h, 1000 g/ha, after 13 days, 100=total damage, 0=no damage, read-out: Percentage damage caused to weed species SOLNI.
Type: in vivo
Protocol: as §1, with “8 days” for “one day”
as §3
`COC(=O)c1nc(-c2ccc(F)nc2)nc(N)c1Cl` [Compound 2-157, 4-Amino-5-chloro-2-(2-fluoropyridin-5-yl)-6-methoxycarbonyl pyrimidine] was tested, and the pest or weed control at 1000 g/ha was 60%. For `COC(=O)c1nc(-c2ccc(OC)nc2OC)nc(N)c1Cl` [Compound 2-159, 4-Amino-5-chloro-2-(2,6-dimethoxypyridin-3-yl)-6-methoxycarbonyl pyrimidine], the pest or weed control at 1000 g/ha was 50%. `COC(=O)c1nc(-c2ccc(C)nc2F)nc(N)c1Cl` [Compound 2-161, 4-Amino-5-chloro-2-(2-fluoro-6-methylpyridin-3-yl)-6-methoxycarbonyl pyrimidine] was tested, and the pest or weed control at 1000 g/ha was 80%.
